Data published in ChEMBL document CHEMBL3991601, “The target landscape of clinical kinase drugs” (Science, 2017).
Active and inactive are the calls of the source.

Key:
[1] = target: Ribosomal protein S6 kinase alpha-1 (Homo sapiens, UniProt Q15418)
[2] = target: Structural maintenance of chromosomes protein 2 (Homo sapiens, UniProt O95347)
[3] = target: T1, Very long-chain specific acyl-CoA dehydrogenase, mitochondrial (Homo sapiens, UniProt P49748)
T1 sequence (P49748 whole entry): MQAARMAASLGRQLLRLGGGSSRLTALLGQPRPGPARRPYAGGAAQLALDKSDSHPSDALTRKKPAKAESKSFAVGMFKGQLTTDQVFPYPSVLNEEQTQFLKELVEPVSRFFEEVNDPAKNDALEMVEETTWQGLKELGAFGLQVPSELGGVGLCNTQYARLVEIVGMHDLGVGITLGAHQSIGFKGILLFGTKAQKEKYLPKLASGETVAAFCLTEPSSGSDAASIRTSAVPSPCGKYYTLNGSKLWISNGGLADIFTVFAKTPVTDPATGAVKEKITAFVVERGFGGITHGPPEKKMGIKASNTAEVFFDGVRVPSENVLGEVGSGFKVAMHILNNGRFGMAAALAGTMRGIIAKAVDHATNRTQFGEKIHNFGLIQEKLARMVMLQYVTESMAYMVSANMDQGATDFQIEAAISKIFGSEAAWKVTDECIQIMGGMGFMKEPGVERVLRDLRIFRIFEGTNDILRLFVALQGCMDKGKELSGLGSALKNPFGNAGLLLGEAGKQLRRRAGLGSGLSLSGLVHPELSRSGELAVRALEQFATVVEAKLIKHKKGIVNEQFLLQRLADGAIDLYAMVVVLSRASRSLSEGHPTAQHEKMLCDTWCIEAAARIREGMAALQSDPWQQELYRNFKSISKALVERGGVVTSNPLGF

[4] = target: cAMP-dependent protein kinase type II-alpha regulatory subunit (Homo sapiens, UniProt P13861)
cAMP-dependent protein kinase type II-alpha regulatory subunit, sequence (P13861 whole entry): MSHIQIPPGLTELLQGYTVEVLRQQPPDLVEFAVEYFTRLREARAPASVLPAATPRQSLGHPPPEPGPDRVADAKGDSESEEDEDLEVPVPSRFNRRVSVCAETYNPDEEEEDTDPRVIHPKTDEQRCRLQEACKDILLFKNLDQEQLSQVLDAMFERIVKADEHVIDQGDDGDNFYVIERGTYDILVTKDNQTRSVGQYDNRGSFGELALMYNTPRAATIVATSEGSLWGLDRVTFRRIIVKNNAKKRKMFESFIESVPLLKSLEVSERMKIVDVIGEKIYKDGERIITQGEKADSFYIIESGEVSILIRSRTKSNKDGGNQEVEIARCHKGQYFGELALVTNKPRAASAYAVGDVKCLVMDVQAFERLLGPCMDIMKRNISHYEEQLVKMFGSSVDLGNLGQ

[5] = target: Mitogen-activated protein kinase 7 (Homo sapiens, UniProt Q13164)
Mitogen-activated protein kinase 7, sequence (Q13164 whole entry): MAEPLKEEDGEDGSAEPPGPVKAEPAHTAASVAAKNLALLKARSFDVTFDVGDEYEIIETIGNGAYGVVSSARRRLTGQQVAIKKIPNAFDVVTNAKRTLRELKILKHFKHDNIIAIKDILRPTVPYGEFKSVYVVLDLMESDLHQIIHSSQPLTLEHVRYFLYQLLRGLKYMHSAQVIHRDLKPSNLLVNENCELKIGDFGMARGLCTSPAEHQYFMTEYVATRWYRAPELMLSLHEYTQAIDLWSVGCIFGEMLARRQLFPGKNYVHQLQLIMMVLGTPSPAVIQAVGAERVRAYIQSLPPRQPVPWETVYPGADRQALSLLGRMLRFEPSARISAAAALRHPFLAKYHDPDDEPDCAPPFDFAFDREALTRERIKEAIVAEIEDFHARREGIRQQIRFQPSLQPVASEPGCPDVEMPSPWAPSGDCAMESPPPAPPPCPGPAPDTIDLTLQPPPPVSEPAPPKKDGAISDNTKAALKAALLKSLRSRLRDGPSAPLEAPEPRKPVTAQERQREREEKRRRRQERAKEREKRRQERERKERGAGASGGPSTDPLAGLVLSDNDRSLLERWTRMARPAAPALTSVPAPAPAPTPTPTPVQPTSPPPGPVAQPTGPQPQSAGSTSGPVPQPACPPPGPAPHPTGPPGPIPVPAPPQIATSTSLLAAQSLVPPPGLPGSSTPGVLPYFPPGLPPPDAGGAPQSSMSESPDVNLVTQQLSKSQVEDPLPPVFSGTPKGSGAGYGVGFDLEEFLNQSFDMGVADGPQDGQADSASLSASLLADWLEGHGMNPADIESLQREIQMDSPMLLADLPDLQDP

[6] = target: T2, Glycogen phosphorylase, brain form (Homo sapiens, UniProt P11216)
T2 sequence (P11216 whole entry): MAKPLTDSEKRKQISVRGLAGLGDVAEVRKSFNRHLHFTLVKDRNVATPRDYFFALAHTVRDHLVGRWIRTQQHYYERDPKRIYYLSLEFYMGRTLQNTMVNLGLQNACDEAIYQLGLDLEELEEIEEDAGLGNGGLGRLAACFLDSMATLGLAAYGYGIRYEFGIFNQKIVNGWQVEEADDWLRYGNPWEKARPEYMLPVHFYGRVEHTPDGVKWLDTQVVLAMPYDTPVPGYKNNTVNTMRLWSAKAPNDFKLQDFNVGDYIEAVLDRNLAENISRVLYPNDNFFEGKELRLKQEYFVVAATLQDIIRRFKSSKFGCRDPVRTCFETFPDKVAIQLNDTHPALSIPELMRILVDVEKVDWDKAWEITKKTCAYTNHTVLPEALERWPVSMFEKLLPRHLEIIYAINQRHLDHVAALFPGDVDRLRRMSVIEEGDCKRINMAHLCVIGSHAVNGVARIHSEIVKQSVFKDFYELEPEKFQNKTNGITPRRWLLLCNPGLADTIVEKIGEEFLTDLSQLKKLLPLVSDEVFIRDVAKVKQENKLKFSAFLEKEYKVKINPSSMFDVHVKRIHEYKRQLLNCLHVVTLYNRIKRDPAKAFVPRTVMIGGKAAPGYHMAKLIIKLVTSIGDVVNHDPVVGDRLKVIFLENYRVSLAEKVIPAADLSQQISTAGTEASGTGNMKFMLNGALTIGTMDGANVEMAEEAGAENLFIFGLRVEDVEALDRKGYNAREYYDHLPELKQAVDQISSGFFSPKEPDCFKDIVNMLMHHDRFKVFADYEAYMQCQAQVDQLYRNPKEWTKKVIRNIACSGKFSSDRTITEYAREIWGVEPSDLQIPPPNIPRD

[7] = target: Cyclin-dependent kinase 2 (Homo sapiens, UniProt P24941)
[8] = target: DnaJ homolog subfamily A member 1 (Homo sapiens, UniProt P31689)
DnaJ homolog subfamily A member 1, sequence (P31689 whole entry): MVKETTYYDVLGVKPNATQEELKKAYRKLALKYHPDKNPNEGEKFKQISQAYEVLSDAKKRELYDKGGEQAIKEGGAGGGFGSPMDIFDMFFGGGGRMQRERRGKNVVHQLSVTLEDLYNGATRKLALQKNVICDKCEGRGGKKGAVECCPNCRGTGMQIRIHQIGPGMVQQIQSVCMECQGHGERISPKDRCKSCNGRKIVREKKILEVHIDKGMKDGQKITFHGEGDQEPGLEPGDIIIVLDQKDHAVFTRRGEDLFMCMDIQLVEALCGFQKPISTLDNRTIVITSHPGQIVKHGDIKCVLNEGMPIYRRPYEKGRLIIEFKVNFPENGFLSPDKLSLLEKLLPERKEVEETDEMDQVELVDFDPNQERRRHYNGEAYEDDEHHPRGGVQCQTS

[9] = target: T3, Dynamin-like GTPase OPA1, mitochondrial (Homo sapiens, UniProt O60313)
T3 sequence (O60313 whole entry): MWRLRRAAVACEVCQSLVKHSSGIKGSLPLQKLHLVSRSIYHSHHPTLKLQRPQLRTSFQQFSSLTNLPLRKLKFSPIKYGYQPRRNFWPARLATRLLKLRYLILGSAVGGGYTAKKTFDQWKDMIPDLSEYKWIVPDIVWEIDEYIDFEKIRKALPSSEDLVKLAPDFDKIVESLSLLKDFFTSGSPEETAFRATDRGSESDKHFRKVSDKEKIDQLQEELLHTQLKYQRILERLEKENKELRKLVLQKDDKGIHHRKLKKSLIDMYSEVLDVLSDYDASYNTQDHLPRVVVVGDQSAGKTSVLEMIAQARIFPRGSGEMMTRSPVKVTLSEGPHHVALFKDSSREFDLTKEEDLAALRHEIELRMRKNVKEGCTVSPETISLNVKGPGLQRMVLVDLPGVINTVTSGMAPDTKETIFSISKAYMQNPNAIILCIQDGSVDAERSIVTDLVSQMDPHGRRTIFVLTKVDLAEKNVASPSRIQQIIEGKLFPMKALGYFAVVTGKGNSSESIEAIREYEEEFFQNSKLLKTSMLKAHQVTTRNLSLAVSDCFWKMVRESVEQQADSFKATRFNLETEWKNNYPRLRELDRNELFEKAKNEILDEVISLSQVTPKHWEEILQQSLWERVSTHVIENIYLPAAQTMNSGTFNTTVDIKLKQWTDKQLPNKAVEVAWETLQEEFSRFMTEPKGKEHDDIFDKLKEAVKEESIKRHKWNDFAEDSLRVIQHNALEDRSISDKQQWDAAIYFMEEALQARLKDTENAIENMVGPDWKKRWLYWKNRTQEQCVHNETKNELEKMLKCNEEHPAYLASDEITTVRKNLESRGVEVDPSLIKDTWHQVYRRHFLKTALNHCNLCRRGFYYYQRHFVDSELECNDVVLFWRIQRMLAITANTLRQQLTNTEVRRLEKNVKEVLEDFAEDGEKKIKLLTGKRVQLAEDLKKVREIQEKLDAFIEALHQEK

[10] = target: Inosine-5'-monophosphate dehydrogenase 2 (Homo sapiens, UniProt P12268)

Measured: Kd
Note: in the data inactive means no Kd found up to 30 µM.

Ribosomal protein S6 kinase alpha-1, sequence (Q15418 whole entry): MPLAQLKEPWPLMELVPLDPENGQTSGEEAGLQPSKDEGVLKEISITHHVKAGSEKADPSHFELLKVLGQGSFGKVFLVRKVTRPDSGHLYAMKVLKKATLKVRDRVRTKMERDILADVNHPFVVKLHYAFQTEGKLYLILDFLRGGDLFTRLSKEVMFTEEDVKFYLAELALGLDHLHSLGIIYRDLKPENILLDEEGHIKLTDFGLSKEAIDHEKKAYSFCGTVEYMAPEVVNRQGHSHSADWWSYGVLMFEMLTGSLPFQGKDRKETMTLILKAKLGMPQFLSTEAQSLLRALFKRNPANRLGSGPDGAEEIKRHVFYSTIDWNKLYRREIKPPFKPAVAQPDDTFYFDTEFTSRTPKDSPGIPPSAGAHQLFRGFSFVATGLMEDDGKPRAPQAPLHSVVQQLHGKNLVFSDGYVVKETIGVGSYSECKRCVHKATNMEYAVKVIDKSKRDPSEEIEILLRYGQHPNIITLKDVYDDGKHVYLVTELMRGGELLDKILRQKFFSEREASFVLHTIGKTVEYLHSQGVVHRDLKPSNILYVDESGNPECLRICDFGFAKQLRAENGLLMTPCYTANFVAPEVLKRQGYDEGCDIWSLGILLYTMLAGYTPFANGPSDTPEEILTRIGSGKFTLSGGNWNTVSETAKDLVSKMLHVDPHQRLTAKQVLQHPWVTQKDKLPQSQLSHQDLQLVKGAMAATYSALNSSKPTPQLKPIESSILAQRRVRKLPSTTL
Structural maintenance of chromosomes protein 2, sequence (O95347 whole entry): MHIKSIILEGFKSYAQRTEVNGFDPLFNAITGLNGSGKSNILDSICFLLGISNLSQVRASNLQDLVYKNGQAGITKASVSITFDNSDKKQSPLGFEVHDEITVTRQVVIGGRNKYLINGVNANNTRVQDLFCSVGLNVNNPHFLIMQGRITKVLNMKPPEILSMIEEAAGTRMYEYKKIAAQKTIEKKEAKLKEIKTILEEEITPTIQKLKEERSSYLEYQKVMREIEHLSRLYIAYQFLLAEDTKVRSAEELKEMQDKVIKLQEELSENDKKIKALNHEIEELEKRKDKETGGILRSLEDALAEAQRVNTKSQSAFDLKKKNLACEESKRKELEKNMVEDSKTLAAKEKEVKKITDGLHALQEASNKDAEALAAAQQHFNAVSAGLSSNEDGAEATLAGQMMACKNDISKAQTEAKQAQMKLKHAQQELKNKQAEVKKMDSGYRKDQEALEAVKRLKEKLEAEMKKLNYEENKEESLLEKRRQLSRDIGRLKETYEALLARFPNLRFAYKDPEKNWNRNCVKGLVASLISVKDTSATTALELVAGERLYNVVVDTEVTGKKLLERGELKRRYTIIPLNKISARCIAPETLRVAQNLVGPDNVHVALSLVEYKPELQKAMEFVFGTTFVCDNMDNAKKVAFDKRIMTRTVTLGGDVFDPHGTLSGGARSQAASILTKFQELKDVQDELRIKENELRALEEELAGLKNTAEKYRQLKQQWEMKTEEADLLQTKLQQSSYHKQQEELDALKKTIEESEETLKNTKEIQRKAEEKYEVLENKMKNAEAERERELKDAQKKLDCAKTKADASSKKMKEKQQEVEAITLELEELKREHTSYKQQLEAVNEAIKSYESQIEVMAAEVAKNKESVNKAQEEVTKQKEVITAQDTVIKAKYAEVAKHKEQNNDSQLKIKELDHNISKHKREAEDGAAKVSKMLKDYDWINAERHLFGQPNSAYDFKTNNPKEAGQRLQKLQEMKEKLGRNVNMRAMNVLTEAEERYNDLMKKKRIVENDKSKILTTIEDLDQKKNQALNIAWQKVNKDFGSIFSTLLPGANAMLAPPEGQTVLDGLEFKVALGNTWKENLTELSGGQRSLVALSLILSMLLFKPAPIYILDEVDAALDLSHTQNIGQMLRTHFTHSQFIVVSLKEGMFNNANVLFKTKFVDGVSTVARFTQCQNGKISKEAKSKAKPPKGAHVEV

FC(F)(F)c1ccc(CNc2ccc(Cc3c[nH]c4ncc(Cl)cc34)cn2)cn1 [PEXIDARTINIB]
inactive: [1] > 30 µM | [2] > 30 µM | [3] > 30 µM | [4] > 30 µM | [5] > 30 µM | [6] > 30 µM | [7] > 30 µM | [8] > 30 µM | [9] > 30 µM | [10] > 30 µM

O=S(=O)(c1cccc2c(O)nccc12)N1CCCNCC1 [HYDROXYFASUDIL]
inactive: [1] > 30 µM | [2] > 30 µM | [3] > 30 µM | [4] > 30 µM | [5] > 30 µM | [6] > 30 µM | [7] > 30 µM | [8] > 30 µM | [9] > 30 µM | [10] > 30 µM
